# Data taken from PubChem BioAssay (NCI).
#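 Following 48 hours of exposure in 96-well plates, responses at five concentrations were used to interpolate endpoints linearly. GI50 = concentration required for 50% inhibition of growth. At the TGI there is no net growth.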 Where a SMILES comes first, the peptide text is derived from it. Bridges are numbered along the chain shown (N, C = ends). [ ]: non-standard residue; d: D form. The star is where a group is joined. Cbz = O=C(OCc1ccccc1)*; Aib = CC(C)(N)C(=O)O; OBn = c1ccc(CO*)cc1; βAla = NCCC(=O)O
# Legend:
# Assay in all cases: growth of human tumour cells (NCI), 48 h
# DLD-1 colon = test system: DLD-1 colon
# DMS 114 small cell lung = test system: DMS 114 small cell lung
# DMS 273 small cell lung = test system: DMS 273 small cell lung
# HOP-18 NSCLC = test system: HOP-18 NSCLC
# HS 578T breast = test system: HS 578T breast
# KM20L2 colon = test system: KM20L2 colon
# LXFL 529 NSCLC = test system: LXFL 529 NSCLC
# M19-MEL melanoma = test system: M19-MEL melanoma
# RXF-631 renal = test system: RXF-631 renal
# SNB-78 CNS = test system: SNB-78 CNS
# XF 498 CNS = test system: XF 498 CNS
smiles,measurement,setting,value
CCCN(CCCCC(NC(C)=O)C(=O)NCc1ccccc1)C(=O)N(CCCl)N=O (centres undefined),TGI,DLD-1 colon,> 100 µM
same,TGI,DMS 114 small cell lung,> 100 µM
same,TGI,DMS 273 small cell lung,> 100 µM
same,TGI,HOP-18 NSCLC,> 100 µM
same,TGI,HS 578T breast,> 100 µM
same,TGI,KM20L2 colon,> 100 µM
same,TGI,LXFL 529 NSCLC,> 100 µM
same,TGI,M19-MEL melanoma,> 100 µM
same,TGI,RXF-631 renal,> 100 µM
same,TGI,SNB-78 CNS,> 100 µM
same,TGI,XF 498 CNS,> 100 µM
Brc1ccc2c(-c3nc(-c4c[nH]c5ccc(Br)cc45)cs3)c[nH]c2c1,TGI,HS 578T breast,> 52.9 µM
Nc1nc(Cl)cc(NCC2(CO)CC(OCc3ccccc3)C2)n1 (centres undefined),TGI,HS 578T breast,> 100 µM
CCC1c2[nH]c3ccccc3c2C[C@H]2C(=O)NC(CCC(=O)OC(C)(C)C)C(=O)N12 (some centres undefined),TGI,HS 578T breast,> 100 µM
O=C(CC(=O)N(C(=O)c1ccccc1)c1ccc(Cl)cc1)N/N=C\c1cc(N=Nc2ccccc2Cl)ccc1O,TGI,HS 578T breast,61.6 µM
NC(N)=N/N=C/c1c(Cl)nc2sccn12,TGI,HS 578T breast,84.8 µM
CCOC(=O)/C(O)=C(/C=NC(=S)c1ccncc1)C(=O)OCC,TGI,HS 578T breast,> 100 µM
O=[N+]([O-])C(C(Cl)=C(Cl)Cl)=C(N1CCOCC1)N1CCOCC1,TGI,HS 578T breast,> 100 µM
CC#CC(=O)Nc1ccccc1CC(c1c[nH]c2ccccc12)c1c[nH]c2ccccc12,TGI,DLD-1 colon,36.3 µM
same,TGI,DMS 114 small cell lung,29.9 µM
same,TGI,DMS 273 small cell lung,32.7 µM
same,TGI,LXFL 529 NSCLC,38 µM
same,TGI,M19-MEL melanoma,31.2 µM
same,TGI,SNB-78 CNS,46.1 µM
N#[O+].O=S(=O)([O-])[O-].[NH2-].[NH2-].[NH2-].[NH2-].[NH2-].[Ru+5],TGI,DLD-1 colon,> 100 µM
same,TGI,KM20L2 colon,> 100 µM
same,GI50,LXFL 529 NSCLC,> 100 µM
same,TGI,LXFL 529 NSCLC,> 100 µM
same,TGI,SNB-78 CNS,> 100 µM
O=C(Nc1ccc2nc(-c3ccccc3)cn2c1)Oc1ccccc1,TGI,HS 578T breast,> 100 µM
CC1(C)NC(=O)C(NC(=O)C(CC(=O)OCc2ccccc2)NC(=O)OCc2ccccc2)CCCCNC(=O)CCNC1=O (centres undefined) (Cbz-D(OBn)K[Aib][βAla]; lactam 2-C; configuration not given here),TGI,HS 578T breast,> 100 µM
CCCCn1c(C)c(C(=O)OCC)c2cc(OCc3ccc(C(=O)Nn4c(C)ccc4C)cc3)c(Br)cc21,TGI,HS 578T breast,> 100 µM
N#Cc1nc(COCCOCc2ccccc2)oc1N,TGI,HS 578T breast,> 100 µM
CC1=C2C3=C(C)C(=O)C(C)(C)CC[C@@]3(C)[C@]2(C)CCC(C)(C)C1=O,TGI,HS 578T breast,> 100 µM
CCOC(=O)[C@H]1Nc2ccc(C)cc2C2c3ccccc3CC21 (some centres undefined),TGI,DLD-1 colon,> 100 µM
same,TGI,DMS 114 small cell lung,> 100 µM
same,TGI,DMS 273 small cell lung,> 100 µM
same,TGI,HOP-18 NSCLC,> 100 µM
same,TGI,KM20L2 colon,> 100 µM
same,TGI,LXFL 529 NSCLC,> 100 µM
same,TGI,M19-MEL melanoma,> 100 µM
same,TGI,SNB-78 CNS,> 100 µM
COC(=O)c1ccc2c(c1)CC1(C2)Cc2cc3c(cc2C1=O)CCC3 (centres undefined),TGI,HS 578T breast,> 100 µM
O=C1NNC(=O)C2C3c4ccccc4C(c4ccccc43)C12 (centres undefined),TGI,HS 578T breast,> 100 µM
Cc1ccccc1Nc1cn(COCc2ccccc2)c(=O)[nH]c1=O,TGI,HS 578T breast,> 100 µM
CSc1ccc(C2C(Cl)C(=O)N2NC(=O)c2c(Cl)c(Cl)c(Cl)c(Cl)c2-c2nc3ccccc3[nH]2)cc1 (centres undefined),TGI,HS 578T breast,> 100 µM
CSc1nc(Cl)c2c(n1)Sc1nc3cc4c(cc3n1C2O)OCO4 (centres undefined),TGI,HS 578T breast,> 30.4 µM
Cc1[nH]c(=O)[nH]c(=S)c1C(=O)NC(C)(CO)CO,TGI,HS 578T breast,> 100 µM
CCOC(=O)C(=C(SC)SC)c1nn2c(=O)cc(C)nc2s1,TGI,HS 578T breast,> 100 µM
S=C1Cc2c([nH]c3ccccc23)-c2ccccc2N1,TGI,HS 578T breast,> 100 µM
C=CCN1C(=O)/C(=C/c2ccccc2)NC1=S,TGI,HS 578T breast,> 100 µM
CCCN=C(NC(=O)c1ccc(Cl)cc1)SC,TGI,HS 578T breast,95 µM
Cn1c(=O)c2c(nc(NCCCCl)n2CC(=O)NCCCCl)n(C)c1=O,TGI,HS 578T breast,> 100 µM
CC(=O)O[C@@H]1C=C(C)[C@H](CBr)O[C@@]2(C)CC[C@H](Br)C(C)(C)[C@H]12,TGI,HS 578T breast,> 100 µM
COc1cccc(C2c3cc4c(cc3OC(N3CCCC3)C2C)OCO4)c1 (centres undefined),TGI,HS 578T breast,34.6 µM
Nc1nc(Cl)cc(NCC2(CO)COC2)n1,TGI,HS 578T breast,> 100 µM
CNC(=O)N1CCN(C(=O)NC)CCN(C(=O)NC)CC1,TGI,HS 578T breast,> 100 µM
COc1cc2c(c(OC)c1OC)-c1ccc(SC)c(=O)cc1C(CC(=O)Oc1ccc([N+](=O)[O-])cc1)C2 (centres undefined),TGI,DLD-1 colon,8.69 µM
same,TGI,DMS 114 small cell lung,0.677 µM
same,TGI,DMS 273 small cell lung,> 36.9 µM
same,TGI,HOP-18 NSCLC,> 48.9 µM
same,TGI,KM20L2 colon,0.465 µM
same,TGI,LXFL 529 NSCLC,> 34.6 µM
same,TGI,M19-MEL melanoma,36.9 µM
same,TGI,RXF-631 renal,0.052 µM
same,TGI,SNB-78 CNS,41 µM
same,TGI,XF 498 CNS,4.73 µM
COc1cc(C2c3cc4c(cc3[C@@H](Nc3ccccc3)C3CO[C@@H](OC)[C@H]23)OCO4)cc(OC)c1O (some centres undefined),TGI,HS 578T breast,17.3 µM
O=C(CCc1ccc(O)cc1)NCCc1ccc(O)cc1,TGI,HS 578T breast,> 100 µM
CC/C(=N/O)c1ccc(Br)s1,TGI,HS 578T breast,> 100 µM
N#CCCN(CCC#N)c1ccc(C(=O)NN)cc1,TGI,DLD-1 colon,> 100 µM
same,TGI,DMS 114 small cell lung,> 100 µM
same,TGI,DMS 273 small cell lung,> 100 µM
same,TGI,HOP-18 NSCLC,> 100 µM
same,TGI,KM20L2 colon,> 100 µM
same,TGI,LXFL 529 NSCLC,> 100 µM
same,TGI,M19-MEL melanoma,> 100 µM
same,TGI,RXF-631 renal,> 100 µM
same,TGI,SNB-78 CNS,> 100 µM
same,TGI,XF 498 CNS,> 100 µM
COC(=O)CCC(=O)NC1c2cccc3cccc(c23)Cn2c(=O)n(C)c(=O)n21 (centres undefined),TGI,HS 578T breast,> 100 µM
C=C1CC[C@@]2(OC1)OC1C[C@H]3[C@@H]4CC=C5C[C@@H](O)CC(OC6OCC(OC(=O)[C@@H](O)[C@@H](C)CC)C(OC(C)=O)C6OC6OC(C)C(O)C(O)C6O)[C@]5(C)[C@H]4CC[C@]3(C)C1[C@@H]2C (some centres undefined),TGI,HS 578T breast,> 10 µM
O=c1[nH]nc(-c2cccc(Br)c2)[nH]1,TGI,HS 578T breast,79.7 µM
C=C(C)[C@@H](C(=O)OC)N1C(=O)c2ccccc2C1=O,TGI,HS 578T breast,> 100 µM
